Assay results published in patent US20230085307A1, “PYRIDAZINONE COMPOUND AND HERBICIDE” (NISSAN CHEMICAL CORPORATION, priority 2019, published 2023).

What was measured:
[1] = system: late watergrass; assay: Test Example 1: herbicidal activity, application before weed generation under submerged conditions (Table 16, symbol A); type: in vivo, late watergrass (Echinochloa oryzicola); conditions: amount of applied herbicide 320 g/ha
In short: (§1)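 Emulsion formulation, water-diluted to set dose, was put onto the flooded surface (4 cm depth, alluvial soil) the same day weeds were sown and 2.5-leaf rice transplanted. After 3 weeks at 25-30 °C under glass, each species was rated 0 (≤5% kill) to 5 (≥90% kill).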

[2] = system: Japanese bulrush; assay: Test Example 1: herbicidal activity, application before weed generation under submerged conditions (Table 16, symbol B); type: in vivo, Japanese bulrush (Schoenoplectus juncoides); conditions: amount of applied herbicide 320 g/ha
In short: as §1

[3] = system: Japanese bulrush; assay: Test Example 2: herbicidal activity, application during weed generation under submerged conditions (Table 17, symbol B); type: in vivo, Japanese bulrush (Schoenoplectus juncoides); conditions: AAH 320 g/ha; application during weed generation, submerged conditions
In short: (§2)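 Mixed weed seedlings in alluvial soil under a 4 cm water layer, greenhouse-grown at 25–30° C. Compound given as a diluted emulsion into the floodwater at the 1–2 leaf stage; response graded after three weeks.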

[4] = system: oval-leafed pondweed; assay: Test Example 2: herbicidal activity, application during weed generation under submerged conditions (Table 17, symbol C); type: in vivo, oval-leafed pondweed (Monochoria vaginalis); conditions: AAH 320 g/ha; application during weed generation, submerged conditions
In short: as §2

[5] = system: southern crabgrass; assay: Test Example 4: herbicidal effect by soil treatment (Table 19, symbol F); type: in vivo, southern crabgrass (Digitaria ciliaris); conditions: amount of applied herbicide 320 g/ha
In short: (§3)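 Step 1: sow seeds in sterilized diluvial soil, cover ~1.5 cm. Step 2: spray diluted emulsion onto soil surface at predetermined rate. Step 3: greenhouse, 25–30° C, three weeks. Step 4: grade effect on each plant by earlier criteria.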

[6] = system: barnyard grass; assay: Test Example 4: herbicidal effect by soil treatment (Table 19, symbol H); type: in vivo, barnyard grass (Echinochloa crus-galli); conditions: amount of applied herbicide 320 g/ha
In short: as §3

[7] = system: wild oat; assay: Test Example 4: herbicidal effect by soil treatment (Table 19, symbol I); type: in vivo, wild oat (Avena fatua); conditions: amount of applied herbicide 320 g/ha
In short: as §3

[8] = system: blackgrass; assay: Test Example 4: herbicidal effect by soil treatment (Table 19, symbol J); type: in vivo, blackgrass (Alopecurus myosuroides); conditions: amount of applied herbicide 320 g/ha
In short: as §3

[9] = system: Italian ryegrass; assay: Test Example 4: herbicidal effect by soil treatment (Table 19, symbol K); type: in vivo, Italian ryegrass (Lolium multiflorum); conditions: amount of applied herbicide 320 g/ha
In short: as §3

[10] = system: redroot pigweed; assay: Test Example 4: herbicidal effect by soil treatment (Table 19, symbol N); type: in vivo, redroot pigweed (Amaranthus retroflexus); conditions: amount of applied herbicide 320 g/ha
In short: as §3

[11] = system: false cleavers; assay: Test Example 4: herbicidal effect by soil treatment (Table 19, symbol Q); type: in vivo, false cleavers (Galium spurium); conditions: amount of applied herbicide 320 g/ha
In short: as §3

[12] = system: green foxtail; assay: Test Example 5: herbicidal effect by foliage application, plastic box (Table 20, symbol G); type: in vivo, green foxtail (Setaria viridis); conditions: foliage application, 320 g/ha, three weeks after application
In short: (§4)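 Foliar spray test: emulsion formulation diluted in water to a set application rate, sprayed onto 14-day-old plants raised in diluvial soil at 25° C to 30° C under glass. Both herbicidal effect and crop effect rated visually three weeks later.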

[13] = system: barnyard grass; assay: Test Example 5: herbicidal effect by foliage application, plastic box (Table 20, symbol H); type: in vivo, barnyard grass (Echinochloa crus-galli); conditions: foliage application, 320 g/ha, three weeks after application
In short: as §4

[14] = system: wild oat; assay: Test Example 5: herbicidal effect by foliage application, plastic box (Table 20, symbol I); type: in vivo, wild oat (Avena fatua); conditions: foliage application, 320 g/ha, three weeks after application
In short: as §4

[15] = system: blackgrass; assay: Test Example 5: herbicidal effect by foliage application, plastic box (Table 20, symbol J); type: in vivo, blackgrass (Alopecurus myosuroides); conditions: foliage application, 320 g/ha, three weeks after application
In short: as §4

[16] = system: redroot pigweed; assay: Test Example 5: herbicidal effect by foliage application, plastic box (Table 20, symbol N); type: in vivo, redroot pigweed (Amaranthus retroflexus); conditions: foliage application, 320 g/ha, three weeks after application
In short: as §4

[17] = system: chickweed; assay: Test Example 5: herbicidal effect by foliage application, plastic box (Table 20, symbol P); type: in vivo, common chickweed (Stellaria media); conditions: foliage application, 320 g/ha, three weeks after application
In short: as §4

[18] = system: false cleavers; assay: Test Example 5: herbicidal effect by foliage application, plastic box (Table 20, symbol Q); type: in vivo, false cleavers (Galium spurium); conditions: foliage application, 320 g/ha, three weeks after application
In short: as §4

| SMILES | Herbicidal effect, A: late watergrass [1] | Herbicidal effect, B: Japanese bulrush [2] | herbicidal effect rating, B: Japanese bulrush [3] | herbicidal effect rating, C: oval-leafed pondweed [4] | G: green foxtail, herbicidal effect grade [12] | H: barnyard grass, herbicidal effect grade [13] | I: wild oat, herbicidal effect grade [14] | J: blackgrass, herbicidal effect grade [15] | N: redroot pigweed, herbicidal effect grade [16] | P: chickweed, herbicidal effect grade [17] | Q: false cleavers, herbicidal effect grade [18] | F: southern crabgrass, herbicidal effect grade [5] | H: barnyard grass, herbicidal effect grade [6] | I: wild oat, herbicidal effect grade [7] | J: blackgrass, herbicidal effect grade [8] | K: Italian ryegrass, herbicidal effect grade [9] | N: redroot pigweed, herbicidal effect grade [10] | Q: false cleavers, herbicidal effect grade [11] | also measured |
| --- | --- | --- | --- | --- | --- | --- | --- | --- | --- | --- | --- | --- | --- | --- | --- | --- | --- | --- | --- |
| CCCC(=O)Oc1c(C)nn(C)c(=O)c1-c1c(-c2ccc3c(c2)OCCO3)sc2cc(F)ccc12 [3-014] | 5 (Herbicidal rate of 90% or more (almost completely withered)) | 3 (Herbicidal rate of 40% or more and less than 70%) | 0 (Herbicidal rate of 5% or less (almost no effect)) | 5 (Herbicidal rate of 90% or more (almost completely withered)) | 3 (Herbicidal rate of 40% or more and less than 70%) | 3 (Herbicidal rate of 40% or more and less than 70%) | 1 (Herbicidal rate of 5% or more and less than 20%) | 1 (Herbicidal rate of 5% or more and less than 20%) | 5 (Herbicidal rate of 90% or more (almost completely withered)) | 5 (Herbicidal rate of 90% or more (almost completely withered)) | 4 (Herbicidal rate of 70% or more and less than 90%) |  |  |  |  |  |  |  | herbicidal effect, F: southern crabgrass [5]: 0 (Herbicidal rate of 5% or less (almost no effect)); herbicidal effect, H: barnyard grass [6]: 0 (Herbicidal rate of 5% or less (almost no effect)); herbicidal effect, I: wild oat [7]: 0 (Herbicidal rate of 5% or less (almost no effect)); herbicidal effect, J: blackgrass [8]: 0 (Herbicidal rate of 5% or less (almost no effect)); herbicidal effect, K: Italian ryegrass [9]: 0 (Herbicidal rate of 5% or less (almost no effect)); herbicidal effect, N: redroot pigweed [10]: 3 (Herbicidal rate of 40% or more and less than 70%); herbicidal effect, Q: false cleavers [11]: 2 (Herbicidal rate of 20% or more and less than 40%) |
| CCOc1ccccc1-c1sc2cc(C)ccc2c1-c1c(O)c(C)nn(C)c1=O [3-053] | 5 (Herbicidal rate of 90% or more (almost completely withered)) | 5 (Herbicidal rate of 90% or more (almost completely withered)) | 3 (Herbicidal rate of 40% or more and less than 70%) | 3 (Herbicidal rate of 40% or more and less than 70%) | 5 (Herbicidal rate of 90% or more (almost completely withered)) | 5 (Herbicidal rate of 90% or more (almost completely withered)) | 5 (Herbicidal rate of 90% or more (almost completely withered)) | 5 (Herbicidal rate of 90% or more (almost completely withered)) | 5 (Herbicidal rate of 90% or more (almost completely withered)) | 5 (Herbicidal rate of 90% or more (almost completely withered)) | 5 (Herbicidal rate of 90% or more (almost completely withered)) | 5 (Herbicidal rate of 90% or more (almost completely withered)) | 0 (Herbicidal rate of 5% or less (almost no effect)) | 4 (Herbicidal rate of 70% or more and less than 90%) | 3 (Herbicidal rate of 40% or more and less than 70%) | 4 (Herbicidal rate of 70% or more and less than 90%) | 3 (Herbicidal rate of 40% or more and less than 70%) | 5 (Herbicidal rate of 90% or more (almost completely withered)) |  |
| CCOc1cc(F)ccc1-c1sc2cc(C)ccc2c1-c1c(O)c(C)nn(C)c1=O [3-057] | 5 (Herbicidal rate of 90% or more (almost completely withered)) | 5 (Herbicidal rate of 90% or more (almost completely withered)) | 4 (Herbicidal rate of 70% or more and less than 90%) | 3 (Herbicidal rate of 40% or more and less than 70%) | 5 (Herbicidal rate of 90% or more (almost completely withered)) | 5 (Herbicidal rate of 90% or more (almost completely withered)) | 5 (Herbicidal rate of 90% or more (almost completely withered)) | 5 (Herbicidal rate of 90% or more (almost completely withered)) | 5 (Herbicidal rate of 90% or more (almost completely withered)) | 5 (Herbicidal rate of 90% or more (almost completely withered)) | 5 (Herbicidal rate of 90% or more (almost completely withered)) | 5 (Herbicidal rate of 90% or more (almost completely withered)) | 4 (Herbicidal rate of 70% or more and less than 90%) | 3 (Herbicidal rate of 40% or more and less than 70%) | 4 (Herbicidal rate of 70% or more and less than 90%) | 2 (Herbicidal rate of 20% or more and less than 40%) | 5 (Herbicidal rate of 90% or more (almost completely withered)) | 3 (Herbicidal rate of 40% or more and less than 70%) |  |
| CCCC(=O)Oc1c(C)nn(C)c(=O)c1-c1c(-c2ccc(F)cc2OCC)sc2cc(C)ccc12 [3-058] | 5 (Herbicidal rate of 90% or more (almost completely withered)) | 5 (Herbicidal rate of 90% or more (almost completely withered)) | 5 (Herbicidal rate of 90% or more (almost completely withered)) | 4 (Herbicidal rate of 70% or more and less than 90%) | 5 (Herbicidal rate of 90% or more (almost completely withered)) | 5 (Herbicidal rate of 90% or more (almost completely withered)) | 5 (Herbicidal rate of 90% or more (almost completely withered)) | 5 (Herbicidal rate of 90% or more (almost completely withered)) | 4 (Herbicidal rate of 70% or more and less than 90%) | 5 (Herbicidal rate of 90% or more (almost completely withered)) | 5 (Herbicidal rate of 90% or more (almost completely withered)) | 5 (Herbicidal rate of 90% or more (almost completely withered)) | 0 (Herbicidal rate of 5% or less (almost no effect)) | 0 (Herbicidal rate of 5% or less (almost no effect)) | 3 (Herbicidal rate of 40% or more and less than 70%) | 0 (Herbicidal rate of 5% or less (almost no effect)) | 5 (Herbicidal rate of 90% or more (almost completely withered)) | 1 (Herbicidal rate of 5% or more and less than 20%) |  |
